# Results published in patent US5652238A, “Esters of substituted-hydroxyacetyl piperazine phenyl oxazolidinones” (Pharmacia & Upjohn Company, priority 1996, dated 1997).
# What was measured:
# [1] = Aqueous solubility (pH 7, phosphate buffer); format: physicochemical
# [2] = test system: Staphylococcus aureus UC9213 or Streptococcus species; assay: Antimicrobial activity in vivo, Murine Assay (mice infected intraperitoneally with bacteria; ED50 from survival over six days); details: 144 h, female mice, treatment one hour and five hours after infection
# Protocol: Antimicrobial activity was tested in vivo using the Murine Assay procedure. Groups of female mice (six mice of 18-20 grams each) were injected intraperitoneally with bacteria which were thawed just prior to use and suspended in brain heart infusion with 4% brewers yeast UC9213 (Staphylococcus aureus) or brain heart infusion (Streptococcus species). Antibiotic treatment at six dose levels per drug was administered one hour and five hours after infection by either oral intubation or subcutaneous ("subcut.") routes. Survival was observed daily for six days. ED50 values based on mortality ratios were calculated using probit analysis. The subject compounds were compared against a well-known antimicobial (Vancomycin) as a control.
solubility [1],Compound,ED50 ([2]; oral),"ED50 ([2]; sc, subcut.)"
1600 µg/mL,"CC(=O)NC[C@H]1CN(c2cc(F)c(N3CCN(C(=O)COC(C)=O)CC3)c(F)c2)C(=O)O1 [Example 14, Acetic acid, 2-(4-(4-(5-((acetylamino)methyl)-2-oxo-3-oxazolidinyl)-2,6-difluorophenyl)-1-piperazinyl)-2-oxoethyl ester, (S)]",3 mg/kg,–
2900 µg/mL,"COCCOC(=O)OCC(=O)N1CCN(c2ccc(N3C[C@H](CNC(C)=O)OC3=O)cc2F)CC1 [Example 6, Carbonic acid, 2-[4-[4-[5-[(acetylamino)methyl]-2-oxo-3-oxazolidinyl]-2-fluorophenyl]-1-piperazinyl]-2-oxoethyl ester-2-methoxyethyl ester, (S)]",2 mg/kg,2 mg/kg
28000 µg/mL,CC(=O)NC[C@H]1CN(c2ccc(N3CCN(C(=O)COC(=O)CCC(=O)O)CC3)c(F)c2)C(=O)O1 [Example 17],5 mg/kg,2 mg/kg
9800 µg/mL,"CC(=O)NC[C@H]1CN(c2ccc(N3CCN(C(=O)COC(=O)c4ccc(NC(=O)CN)cc4)CC3)c(F)c2)C(=O)O1 [Example 29, 4-N-(glycinyl)aminobenzoic acid, 2-[4-[4-[5-[(acetylamino)methyl]-2-oxo-3-oxazolidinyl]-2-fluorophenyl]-1-piperazinyl]-2-oxoethyl ester, (S)-]",9 mg/kg,–
50 µg/mL,"CC(=O)NC[C@H]1CN(c2cc(F)c(N3CCN(C(=O)COC(=O)c4cccnc4)CC3)c(F)c2)C(=O)O1 [Example 3, Nicotinic acid, 2-[4-[4-[5-[(acetylamino)methyl]-2-oxo-3-oxazolidinyl]-2,6-difluorophenyl]-1-piperazinyl]-2-oxoethyl ester, (S)-6]",16 mg/kg,8 mg/kg
55300 µg/mL,"CC(=O)NC[C@H]1CN(c2ccc(N3CCN(C(=O)COC(=O)CN4CCOCC4)CC3)c(F)c2)C(=O)O1 [Example 27, (4-morpholinyl)acetic acid, 2-(4-(4-(5-((acetylamino)methyl)-2-oxo-3-oxazolidinyl)-2-fluorophenyl)-1-piperazinyl)-2-oxoethyl ester, (S)]",6 mg/kg,–

# The remaining lines, values behind:
Compound,solubility [1],ED50 ([2]; oral),"ED50 ([2]; sc, subcut.)"
"CC(=O)NC[C@H]1CN(c2cc(F)c(N3CCN(C(=O)COC(=O)CN(C)C)CC3)c(F)c2)C(=O)O1 [Example 10, Glycine, N,N-dimethyl-, 2-[4-[4-[5-[(acetylamino)methyl]-2-oxo-3-oxazolidinyl]-2,6-difluorophenyl]-1-piperazinyl]-2-oxoethyl ester, (S)-]",4200 µg/mL,1 mg/kg,2 mg/kg
"CC(=O)CCC(=O)OCC(=O)N1CCN(c2c(F)cc(N3C[C@H](CNC(C)=O)OC3=O)cc2F)CC1 [Example 18, 4-Oxo-valeric acid, 2-(4-(4-(5-((acetylamino)methyl)-2-oxo-3-oxazolidinyl)-2,6-difluorophenyl)-1-piperazinyl)-2-oxoethyl ester, (S)]",1200 µg/mL,14 mg/kg,> 20 mg/kg
"CC(=O)NC[C@H]1CN(c2ccc(N3CCN(C(=O)COC(=O)n4ccnc4)CC3)c(F)c2)C(=O)O1 [Example 4, 1H-imidazole-1-carboxylic acid, 2-[4-[4-[5-[(acetylamino)methyl]-2-oxo-3-oxazolidinyl]-2-fluorophenyl]-1-piperazinyl]-2-oxoethyl ester, (S)-]",1400 µg/mL,2 mg/kg,2 mg/kg
"CC(=O)NC[C@H]1CN(c2ccc(N3CCN(C(=O)COC(=O)CO)CC3)c(F)c2)C(=O)O1 [Example 23, Hydroxyacetic acid, 2-[4-[4-[5[(acetylamino)methyl]-2-oxo-3-oxazolidinyl]-2-fluorophenyl]-1-piperazinyl]-2-oxoethyl ester, (S)]",4200 µg/mL,2 mg/kg,1 mg/kg
"COCC(=O)OCC(=O)N1CCN(c2ccc(N3C[C@H](CNC(C)=O)OC3=O)cc2F)CC1 [Example 25, Methoxyacetic acid, 2-(4-(4-(5-((acetylamino)methyl)-2-oxo3-oxazolidinyl)-2-fluorophenyl)-1-piperazinyl)-2-oxoethyl ester, (S)]",6400 µg/mL,8 mg/kg,15 mg/kg
"CC(=O)NC[C@H]1CN(c2ccc(N3CCN(C(=O)COC(=O)CN(C)C)CC3)c(F)c2)C(=O)O1 [Example 9, Glycine, N,N-dimethyl-, 2-[4-[4-[5-[(acetylamino)methyl]-2-oxo-oxazolidinyl]-2-fluorophenyl]-1-piperazinyl]-2-oxoethyl ester, (S)-]",150000 µg/mL,2 mg/kg,3 mg/kg
"CC(=O)NC[C@H]1CN(c2cc(F)c(N3CCN(C(=O)COC(=O)CCN4CCOCC4)CC3)c(F)c2)C(=O)O1 [Example 26, 3-(N-morpholinyl)propionic acid, 2-(4-(4-(5-((acetylamino)methyl)-2-oxo-3-oxaxzolidinyl)-2,6-difluorophenyl)-1-piperazinyl)-2-oxoethyl ester, (S)]",8200 µg/mL,6 mg/kg,3 mg/kg
"CC(=O)NC[C@H]1CN(c2ccc(N3CCN(C(=O)COP(=O)(O)O)CC3)c(F)c2)C(=O)O1 [Example 20, Phosphoric acid, 2-(4-(4-(5-((acetylamino)methyl)-2-oxo-3-oxazolidinyl)-2-fluorophenyl)-1-piperazinyl)-2-oxoethyl ester, (S)]",25700 µg/mL,6 mg/kg,4 mg/kg
"CC(=O)NC[C@H]1CN(c2ccc(N3CCN(C(=O)COC(=O)CCCN(C)C)CC3)c(F)c2)C(=O)O1 [Example 12, 4-(Dimethylamino)butanoic acid, 2-[4-[4-[5-[(acetylamino)methyl]-2-oxo-3-oxazolidinyl]-2-fluorophenyl]-1-piperazinyl]-2-oxoethyl ester, (S)-]",34600 µg/mL,12 mg/kg,> 20 mg/kg
"CC(=O)NC[C@H]1CN(c2ccc(N3CCN(C(=O)COC(=O)c4ccc(N(C)C)cc4)CC3)c(F)c2)C(=O)O1 [Example 7, 4-dimethylaminobenzoic acid, 2-[4-[4-[5-[(acetylamino)methyl]-2-oxo-3-oxazolidinyl]-2-fluorophenyl]-1-piperazinyl]-2-oxoethyl ester, (S)-]",10 µg/mL,> 20 mg/kg,1 mg/kg
"CC(=O)NC[C@H]1CN(c2ccc(N3CCN(C(=O)COC(=O)CN4CCN(C)CC4)CC3)c(F)c2)C(=O)O1 [Example 13, (4-Methyl-1-piperazinyl)acetic acid, 2-[4-[4-[5-[(acetylamino)methyl]-2-oxo-3-oxazolidinyl]-2-fluorophenyl]-1-piperazinyl]-2-oxoethyl ester, (S)-]",79100 µg/mL,> 20 mg/kg,> 20 mg/kg
"CC(=O)NC[C@H]1CN(c2ccc(N3CCN(C(=O)COC(=O)C(C)(CO)CO)CC3)c(F)c2)C(=O)O1 [Example 22, 2,2-bis(hydroxymethyl)propionic acid, 2-[4-[4-[5-[(acetylamino)methyl]-2-oxo-3-oxazolidinyl]-2-fluorophenyl]-1-piperazinyl]-2-oxoethyl ester, (S)-]",13000 µg/mL,> 18 mg/kg,4 mg/kg
"CC(=O)NC[C@H]1CN(c2ccc(N3CCN(C(=O)COC(=O)c4ccc(N)cc4)CC3)c(F)c2)C(=O)O1 [Example 21, 4-aminobenzoic acid, 2-[4-[4-[5-[(acetylamino)methyl]-2-oxo-3-oxazolidinyl]-2-fluorophenyl]-1-piperazinyl]-2-oxoethyl ester, (S)-]",30 µg/mL,8 mg/kg,13 mg/kg
